# Results taken from patent US11873320B2 (REATA PHARMACEUTICALS HOLDINGS, LLC, priority 2013, dated 2024).
# Like-named read-outs stand apart in the source and are kept apart here.
# Assays:
# [1] = oral pharmacokinetics in monkeys; assay type: in vivo, monkey; conditions: 3 mg/kg
# Protocol: Following oral administration of a suspension formulation at doses of 10 to 100 mg/kg, maximal concentrations were observed within 1 to 2 hours in mice, and within 1 to 24 hours in rats and monkeys.
# STAT3 phosphorylation = assay: IL-6-induced STAT3 phosphorylation in HeLa cells; assay type: cell-based, human; conditions: 1 μM, 6 hours pretreatment
# Excerpt: Osteoclastogenesis is a multi-step differentiation process that results from the binding of RANKL to its receptor, RANK, on cells of hematopoietic origin.
# MRP-1 = MRP-1 (Homo sapiens, UniProt P33527); assay: in vitro efflux by MRP-1; conditions: not told
# Sequence of MRP-1 (P33527 whole entry): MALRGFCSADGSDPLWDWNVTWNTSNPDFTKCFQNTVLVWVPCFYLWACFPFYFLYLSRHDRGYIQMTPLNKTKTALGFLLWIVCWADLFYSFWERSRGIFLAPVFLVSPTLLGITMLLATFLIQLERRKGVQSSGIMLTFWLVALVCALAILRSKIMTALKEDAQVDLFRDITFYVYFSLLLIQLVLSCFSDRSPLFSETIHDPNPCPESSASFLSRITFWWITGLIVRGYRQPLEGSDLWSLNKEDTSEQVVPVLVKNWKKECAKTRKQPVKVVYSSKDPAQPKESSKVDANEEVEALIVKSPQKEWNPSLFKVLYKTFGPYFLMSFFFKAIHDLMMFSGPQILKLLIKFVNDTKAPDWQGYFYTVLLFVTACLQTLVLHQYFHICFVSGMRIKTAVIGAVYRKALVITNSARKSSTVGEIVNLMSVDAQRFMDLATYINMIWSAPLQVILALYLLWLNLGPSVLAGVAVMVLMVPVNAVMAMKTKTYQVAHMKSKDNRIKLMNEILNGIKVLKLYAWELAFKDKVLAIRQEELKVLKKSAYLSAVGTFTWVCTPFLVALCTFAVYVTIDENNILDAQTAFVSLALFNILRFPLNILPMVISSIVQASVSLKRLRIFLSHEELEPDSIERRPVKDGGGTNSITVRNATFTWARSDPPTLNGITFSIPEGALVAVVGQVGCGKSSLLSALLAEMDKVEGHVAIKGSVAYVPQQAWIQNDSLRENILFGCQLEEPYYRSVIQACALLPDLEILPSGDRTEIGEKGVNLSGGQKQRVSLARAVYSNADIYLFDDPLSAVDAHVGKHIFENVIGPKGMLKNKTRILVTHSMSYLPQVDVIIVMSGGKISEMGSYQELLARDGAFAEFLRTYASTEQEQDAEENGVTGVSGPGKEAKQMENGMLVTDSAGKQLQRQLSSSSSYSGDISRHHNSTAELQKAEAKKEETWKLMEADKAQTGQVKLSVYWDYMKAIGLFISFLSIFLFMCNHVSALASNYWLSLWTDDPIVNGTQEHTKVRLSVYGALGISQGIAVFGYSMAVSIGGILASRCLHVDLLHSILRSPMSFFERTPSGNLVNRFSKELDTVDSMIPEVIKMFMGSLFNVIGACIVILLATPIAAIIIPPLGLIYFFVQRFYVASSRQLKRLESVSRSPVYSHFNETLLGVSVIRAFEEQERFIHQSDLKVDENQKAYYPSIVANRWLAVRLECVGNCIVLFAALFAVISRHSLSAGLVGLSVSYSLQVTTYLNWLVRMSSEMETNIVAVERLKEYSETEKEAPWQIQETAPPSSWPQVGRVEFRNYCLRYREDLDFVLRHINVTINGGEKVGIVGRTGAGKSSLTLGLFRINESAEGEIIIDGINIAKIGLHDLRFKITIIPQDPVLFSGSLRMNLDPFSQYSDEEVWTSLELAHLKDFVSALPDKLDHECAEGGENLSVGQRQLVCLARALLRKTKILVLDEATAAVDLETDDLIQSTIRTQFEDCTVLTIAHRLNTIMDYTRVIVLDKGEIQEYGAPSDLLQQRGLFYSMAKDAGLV
# [2] = tested on: Nrf2 protein expression in SK-N-SH cells; assay: in-cell western NQO1 assay, SK-N-SH cells; assay type: cell-based; conditions: Homo sapiens, 72 h, 3 days incubation, read-out: EC50 for induction of Nrf2 protein expression in SK-N-SH cells
# Protocol: (§1) HMOX1 protein was not detected in untreated or RTA 408-treated SH-SY5Y cells. […] The same amount of 63170 (54.6 nM) was required.
# The EC50 was measured using an in-cell western NQO1 assay where the cells were incubated with the compound under evaluation for 3 days. After incubation with the compound of interest, the cells were reacted with mouse NQO1 antibody and then the next day the cells were reacted with IRDye-800CW-anti-mouse IgG antibody. The target signals were visualized and then analyzed.
# CYP2B6 = assay: CYP450 induction in cultured human hepatocytes: CYP2B6; assay type: in vitro ADME; conditions: up to 3 μM
# NQO1 = NQO1 enzymatic activity in RAW264.7 cells; assay type: cell-based, mouse; conditions: 24 hours
# Protocol: Consistent with induction of Nrf2 target genes and corresponding protein products, treatment of RAW264.7 mouse macrophage cells for 24 hours increased NQO1 enzymatic activity in a dose-dependent manner, with increases evident at 7.8 nM (FIG. 6).
# [3] = tested on: TNFα-induced NF-κB activation; assay: TNFα-induced NF-κB luciferase reporter, A549/NF-κB-Luc cells; assay type: cell-based; conditions: Homo sapiens
# Excerpt: (§2) NF-κB is a transcription factor that plays a central role in the regulation of many immune and inflammatory responses.
# cynomolgus monkeys = conditions: for ALP (U/L) / ALT (U/L) / AST (U/L) / Albumin / BUN / Chol / Cr / Glucose / TG / Tot Bil / Tot Prot: Day 14
# [4] = tested on: TNFα-induced NF-κB activation; assay: TNFα-induced NF-κB luciferase reporter, HeLa/NF-κB-Luc cells; assay type: cell-based; conditions: Homo sapiens, 1 h pretreatment, TNFα 10 ng/mL 5 h
# Excerpt: as §2
# transaminase mRNA levels = assay: transaminase gene expression in AML-12 hepatocytes; assay type: cell-based, mouse; conditions: 250 nM or 500 nM, 18 hours
# Excerpt: One hypothesis for this effect is that AIMs directly or indirectly increase transaminase gene expression in the absence of cellular toxicity.
# NQO1 protein = assay: Nrf2 target protein levels in SH-SY5Y cells; assay type: cell-based, human; conditions: dose-dependent
# Protocol: as §1
# Nrf2 target genes = assay: Nrf2 target gene expression in BEAS-2B bronchial epithelial cells; assay type: cell-based, human; conditions: 18 hours
# NADPH levels = assay: WST-1 absorbance as marker of NADPH in HCT-116 cells; assay type: cell-based; conditions: 24 hours
# [5] = oral pharmacokinetics, statements pooled over mice, rats and monkeys; assay type: in vivo
# ovalbumin-induced asthma = ovalbumin-induced asthma in mice; assay type: in vivo, mouse
# Excerpt: Mice were sensitized with an IP injection of ovalbumin and aluminum hydroxide on Day 0 and Day 14 and challenged intranasally with ovalbumin in saline on Days 14, 25, 26, and 27. […] An increase in the number of T cells and B cells was also observed in the vehicle-treated mice.
# LPS-induced NO = assay: in vivo NO suppression after LPS, CD-1 mice; conditions: mouse
# NQO1 and HMOX1 protein = assay: Nrf2 target protein levels in BV2 cells; assay type: cell-based, mouse; conditions: concentrations up to 125 nM
# [6] = tested on: bleomycin-induced pulmonary fibrosis
compound,measurement,setting,value
"CC1(C)CC[C@]2(NC(=O)C(C)(F)F)CC[C@]3(C)[C@H](C(=O)C=C4[C@@]5(C)C=C(C#N)C(=O)C(C)(C)[C@@H]5CC[C@]43C)[C@@H]2C1 [RTA 408, N-((4aS,6aR,6bS,8aR,12aS,14aR,14bS)-11-cyano-2,2,6a,6b,9,9,12a-heptamethyl-10,14-dioxo-1,2,3,4,4a,5,6,6a,6b,7,8,8a,9,10,12a,14,14a,14b-octadecahydropicen-4a-yl)-2,2-difluoropropanamide]",dose-normalized systemic exposure of loose-filled capsule vs suspension formulation,[1],somewhat lower
same,IL-6-induced phosphorylation of STAT3,STAT3 phosphorylation,inhibited phosphorylation of STAT3 induced by IL-6
same,MRP-1 substrate status,MRP-1,not a substrate of MRP-1
same,EC50,[2],56.4 nM
same,induction of enzyme activity,CYP2B6,not an inducer
same,concentration at which increase in NQO1 enzymatic activity is evident,NQO1,7.8 nM
same,IC50,[3],627 nM
same,ALP (U/L),cynomolgus monkeys; 10 mg/kg,382 U/L
same,ALT (U/L),cynomolgus monkeys; 10 mg/kg,46 U/L
same,AST (U/L),cynomolgus monkeys; 10 mg/kg,38 U/L
same,Albumin,cynomolgus monkeys; 10 mg/kg,4 g/dL
same,BUN,cynomolgus monkeys; 10 mg/kg,27 mg/dL
same,Chol,cynomolgus monkeys; 10 mg/kg,144 mg/dL
same,Cr,cynomolgus monkeys; 10 mg/kg,0.68 mg/dL
same,Glucose,cynomolgus monkeys; 10 mg/kg,39 mg/dL
same,TG,cynomolgus monkeys; 10 mg/kg,82 mg/dL
same,Tot Bil,cynomolgus monkeys; 10 mg/kg,0.23 mg/dL
same,Tot Prot,cynomolgus monkeys; 10 mg/kg,7.2 g/dL
same,ALP (U/L),cynomolgus monkeys; 30 mg/kg,416 U/L
same,ALT (U/L),cynomolgus monkeys; 30 mg/kg,47 U/L
same,AST (U/L),cynomolgus monkeys; 30 mg/kg,43 U/L
same,Albumin,cynomolgus monkeys; 30 mg/kg,4 g/dL
same,BUN,cynomolgus monkeys; 30 mg/kg,20 mg/dL
same,Chol,cynomolgus monkeys; 30 mg/kg,122 mg/dL
same,Cr,cynomolgus monkeys; 30 mg/kg,0.58 mg/dL
same,Glucose,cynomolgus monkeys; 30 mg/kg,53 mg/dL
same,TG,cynomolgus monkeys; 30 mg/kg,64 mg/dL
same,Tot Bil,cynomolgus monkeys; 30 mg/kg,0.2 mg/dL
same,Tot Prot,cynomolgus monkeys; 30 mg/kg,7.2 g/dL
same,ALP (U/L),cynomolgus monkeys; 100 mg/kg,390 U/L
same,ALT (U/L),cynomolgus monkeys; 100 mg/kg,43 U/L
same,AST (U/L),cynomolgus monkeys; 100 mg/kg,37 U/L
same,Albumin,cynomolgus monkeys; 100 mg/kg,3.2 g/dL
same,BUN,cynomolgus monkeys; 100 mg/kg,24 mg/dL
same,Chol,cynomolgus monkeys; 100 mg/kg,93 mg/dL
same,Cr,cynomolgus monkeys; 100 mg/kg,0.55 mg/dL
same,Glucose,cynomolgus monkeys; 100 mg/kg,32 mg/dL
same,TG,cynomolgus monkeys; 100 mg/kg,61 mg/dL
same,Tot Bil,cynomolgus monkeys; 100 mg/kg,0.18 mg/dL
same,Tot Prot,cynomolgus monkeys; 100 mg/kg,6 g/dL
same,toxicity suggested by clinical chemistry data,cynomolgus monkeys; 14 days,no obvious toxicity
same,mRNAs of Nrf2 target genes in liver and lung,cynomolgus monkeys; PO QD×14,induces Nrf2 target genes in monkey tissues
same,tolerability,"cynomolgus monkeys; all doses, 14 days",well-tolerated without adverse clinical signs
same,"Nrf2 target enzyme activity (NQO1, GSR) in various tissues","cynomolgus monkeys; monkey, in vivo",induces Nrf2 target enzyme activity
same,IC50,[4],517 ± 83 nM
same,alanine transaminase 1 (Alt1 or Gpt1) mRNA,transaminase mRNA levels,increased mRNA levels
same,alanine transaminase 2 (Alt2 or Gpt2) mRNA,transaminase mRNA levels,no effect
same,aspartate transaminase 1 (Ast1 or Got1) mRNA,transaminase mRNA levels,increased mRNA levels
same,aspartate transaminase 2 (Ast2 or Got2) mRNA,transaminase mRNA levels,reduced mRNA levels
same,NQO1 protein levels,NQO1 protein,increased NQO1 protein levels
same,expression of Nrf2 target genes,Nrf2 target genes,dose-dependent increase of all Nrf2 target genes evaluated
same,WST-1 absorbance (NADPH marker),NADPH levels,increased WST-1 absorbance in a dose-dependent manner
same,dose dependence of systemic exposure,"[5]; 3 to 100 mg/kg, suspension",dose-proportional increases in systemic exposure
same,exposure at higher doses,"[5]; 100 to 800 mg/kg in monkeys, 500 to 2000 mg/kg in rats",saturation of absorption at doses above 100 mg/kg
same,systemic exposure by sex,[5]; in vivo,generally similar in males and females
same,exposure after repeated daily oral administration vs single dose,"[5]; in vivo, po",≤ 2 fold
same,B cells within the airways,ovalbumin-induced asthma; 30 mg/kg,significantly reduced the number and percentage of B cells
same,macrophages detected in the airways,ovalbumin-induced asthma; 3 and 30 mg/kg,significantly reduced the number of macrophages
same,NO in vivo,LPS-induced NO,dose-dependently suppresses NO in vivo
same,NQO1 and HMOX1 protein levels,NQO1 and HMOX1 protein,increased NQO1 and HMOX1 protein levels
same,tolerability finding that stopped dosing on day 14,[6]; 30 mg/kg,excessive dehydration and diarrhea
same,polymorphonuclear (PMN) cell infiltration into the lungs,"[6]; 3 and 10 mg/kg, 28 days",significantly suppressed
same,collagen deposition (trichrome staining),"[6]; rat, in vivo",significant decrease in collagen deposition
same,"NQO1, Txnrd, Gsr, and Gst enzyme activity in lungs",[6]; rats exposed to bleomycin,significantly and dose-dependently increased
